# Reference: patent US10112918B2, “15-oxospiramilactone derivatives, preparation method and uses thereof” (Kunming Institute of Botany, The Chinese Academy of Sciences, priority 2013, dated 2018)
# Like-named read-outs stand apart in the source and are kept apart here.
# Assays:
# Format in all cases: cell-based
# [1] = system: Wnt signaling pathway (Top-Flash reporter gene); assay: Top-Flash Wnt reporter gene assay in HEK293T cells with Wnt3a conditioned medium; details: Homo sapiens, HEK-293T, 6 h, HEK293T, Wnt3a conditioned medium, 6 h
# Method in brief: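 IC50 is the concentration giving relative residual reporter activity of 0.5 by 4-parameter logistic fit, after subtracting conditioned-medium DMSO background and normalizing to Wnt-induced signal. Luciferase read from HEK293T carrying TOP-flash and GFP internal standard, exposed 6 h to L-cell Wnt3a conditioned medium plus compound.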
# [2] = system: SMMC-7721 (human hepatoma cells); assay: MTT inhibition of tumor cell growth, SMMC-7721; details: Homo sapiens, SMMC-7721, 48 h
# Method in brief: (§1)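 IC50 values derive from a 5-concentration re-screen following a 40 μM primary test, with 48 h treatment and MTT colorimetry at 595 nm.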
# [3] = system: A-549 (Human lung adenocarcinoma cells); assay: MTT inhibition of tumor cell growth, A-549; details: Homo sapiens, A549, 48 h
# Method in brief: as §1
# [4] = system: MCF-7 (human breast cancer cells); assay: MTT inhibition of tumor cell growth, MCF-7; details: Homo sapiens, MCF7, 48 h
# Method in brief: as §1
# [5] = system: SW-480 (human colon cancer cells); assay: MTT inhibition of tumor cell growth, SW-480; details: Homo sapiens, SW480, 48 h
# Method in brief: as §1
# [6] = system: HL-60 (human promyelocytic leukemia cells); assay: MTT inhibition of tumor cell growth, HL-60; details: Homo sapiens, HL-60, 48 h
# Method in brief: as §1
# [7] = Table 8, read-out: IC50 (μM), inhibitory activity on the Wnt signaling pathway
# [8] = Table 3, single Michael reaction acceptor, modified lactonic ring
# [9] = Table 3, single Michael reaction acceptor, modified lactonic ring, read-out: IC50 SW-480
# [10] = Table 6, 7-hydroxyl derivatives and controls, read-out: IC50 SW-480, 7-hydroxyl derivatives
# [11] = Table 9, read-out: IC50(μM), inhibitory activity on the Wnt signaling pathway
# [12] = Table 2, derivatives having potential Michael reaction acceptor
# [13] = Table 7 (second), derivatives modified on 7-hydroxyl of S-3, read-out: IC50 (μM), inhibitory activity on the Wnt signaling pathway
# [14] = Table 1, 7-hydroxy derivatives of S-3
# [15] = Table 1, 7-hydroxy derivatives of S-3, read-out: IC50 SW-480
# [16] = Table 5, derivatives having double Michael reaction acceptor
# [17] = Table 5, derivatives having double Michael reaction acceptor, read-out: IC50 SW-480
# [18] = Table 4, derivatives obtained by reduction of the lactonic ring
smiles,measurement,setting,value
C=C1C(=O)C23CC[C@H]1CC2[C@@]12CCC[C@@](C)(COS(=O)OC1)C2C[C@H]3O (stereo partly shown) [Compound 41],IC50,[1]; [7],> 60 µM
same,IC50,[2]; [8],900 nM
same,IC50,[3]; [8],2180 nM
same,IC50,[4]; [8],2240 nM
same,IC50,[5]; [9],2090 nM
same,IC50,[5]; [10],2090 nM
same,IC50,[6]; [8],1580 nM
C=C1C(=O)[C@]23CC[C@H]1CC2[C@@]12CCC[C@@](C)(COC1=O)C2[C@H](Cl)C3=O (stereo partly shown) [Compound 14],IC50,[1]; [11],20.1 ± 1.32 µM
same,IC50,[2]; [12],1960 nM
same,IC50,[3]; [12],3030 nM
same,IC50,[4]; [12],2630 nM
same,IC50,"[5]; Table 2, derivatives having potential Michael reaction acceptor, read-out: IC50 SW-480",2380 nM
same,IC50,[6]; [12],3820 nM
C=C1C(=O)[C@]23CC[C@H]1CC2[C@@]12CCC[C@@](C)(COC1=O)C2C[C@@H]3S(=O)(=O)c1ccccc1[N+](=O)[O-] (stereo partly shown) [Compound 1v],IC50,[1]; [13],> 60 µM
same,IC50,[2]; [14],26900 nM
same,IC50,[3]; [14],16600 nM
same,IC50,[4]; [14],11100 nM
same,IC50,[5]; [15],14600 nM
same,IC50,[6]; [14],9640 nM
C=C1C(=O)[C@]23CC[C@H]1CC2[C@@]12CCC[C@@](C)(COC1=O)C2C[C@H]3OS(=O)(=O)c1ccc(Cl)cc1 (stereo partly shown) [Compound 1t],IC50,[1]; [13],14.4 ± 2.28 µM
same,IC50,[2]; [14],3640 nM
same,IC50,[3]; [14],2940 nM
same,IC50,[4]; [14],3190 nM
same,IC50,[5]; [15],1910 nM
same,IC50,[6]; [14],3360 nM
C=C1C(=O)C23CC[C@H]1CC2[C@@]12CCC[C@@](C)(COC1=O)C2C[C@H]3OC(=O)CCCl (stereo partly shown) [Compound 1h],IC50,[1]; [13],20.2 ± 0.99 µM
same,IC50,[2]; [14],3500 nM
same,IC50,[3]; [14],2610 nM
same,IC50,[4]; [14],2700 nM
same,IC50,[5]; [15],3380 nM
same,IC50,[6]; [14],4590 nM
C=C1C(=O)C23CC[C@H]1CC2[C@@]12CCC[C@@](C)(C(=O)OC1=O)C2CC3=O (stereo partly shown) [Compound 39],IC50,[1]; [7],> 60 µM
same,IC50,[2]; [8],34800 nM
same,IC50,[3]; [8],17500 nM
same,IC50,[4]; [8],21500 nM
same,IC50,[5]; [9],20700 nM
same,IC50,[6]; [8],28800 nM
C=C1C(=O)[C@]23CC[C@H]1CC2[C@@]12CCC[C@@](C)(COC1=O)C2=CC3=O (stereo partly shown) [Compound 15],IC50,[1]; [11],11.1 ± 0.63 µM
same,IC50,[2]; [16],800 nM
same,IC50,[3]; [16],910 nM
same,IC50,[4]; [16],1440 nM
same,IC50,[5]; [17],1210 nM
same,IC50,[6]; [16],800 nM
C=C1C(=O)C23CC[C@H]1CC2[C@@]12CCC[C@@](C)(COC1=O)C2C[C@H]3OC(=O)/C=C/c1ccccc1 (stereo partly shown) [Compound 1p],IC50,[1]; [13],18.6 ± 1.26 µM
same,IC50,[2]; [14],1790 nM
same,IC50,[3]; [14],790 nM
same,IC50,[4]; [14],3400 nM
same,IC50,[5]; [15],2160 nM
same,IC50,[6]; [14],1240 nM
C=C1C(=O)C23CC[C@H]1CC2[C@]1(COC(C)=O)CCC[C@@](C)(COC(C)=O)C1C[C@H]3O (stereo partly shown) [Compound 45],IC50,[1]; [7],9.98 ± 1 µM
same,IC50,[2]; [18],7830 nM
same,IC50,[3]; [18],3490 nM
same,IC50,[4]; [18],4820 nM
same,IC50,"[5]; Table 4, derivatives obtained by reduction of the lactonic ring, read-out: IC50 SW-480",9890 nM
same,IC50,[5]; [10],2810 nM
same,IC50,[6]; [18],4740 nM
C=C1C(=O)[C@]23CC[C@H]1CC2[C@@]12CCC[C@@](C)(CO[C@H]1OC)C2CC3=O (stereo partly shown) [Compound 22],IC50,[1]; [7],17.6 ± 1.9 µM
same,IC50,[2]; [8],510 nM
same,IC50,[3]; [8],670 nM
same,IC50,[4]; [8],1570 nM
same,IC50,[5]; [9],2200 nM
same,IC50,"[5]; Table 6, 7-carbonyl derivatives, read-out: IC50 SW-480, 7-carbonyl derivatives",2560 nM
same,IC50,[6]; [8],1460 nM
C=C1C(=O)C23CC[C@@H](CC2[C@]2(COC(=O)c4cccs4)CCC[C@@](C)(COC(=O)c4cccs4)C12)C(=C)C3=O (stereo partly shown) [Compound 65],IC50,[1]; [11],7.68 ± 0.19 µM
same,IC50,[2]; [16],220 nM
same,IC50,[3]; [16],350 nM
same,IC50,[4]; [16],330 nM
same,IC50,[5]; [17],160 nM
same,IC50,"[5]; Table 6, double Michael reaction acceptor derivatives, read-out: IC50 SW-480, derivatives having double Michael reaction acceptor",260 nM
same,IC50,[6]; [16],290 nM
